Reference: ChEMBL document CHEMBL1135306, “Synthesis and evaluation of vancomycin and vancomycin aglycon analogues that bear modifications in the residue 3 asparagine” (2002)
≈ marks a conversion by molar mass, not a printed value.

Columns and labels:
Type in all cases: functional
Enterococcus faecalis [1] = assay: In vitro antibacterial activity against vancomycin resistant Enterococcus faecalis (VanB, ATCC 51299)
Staphylococcus aureus = assay: In vitro antibacterial activity against methicillin sensitive Staphylococcus aureus (ATCC 25923)
Enterococcus faecalis [2] = assay: In vitro antibacterial activity against vancomycin resistant Enterococcus faecalis (VanA, BM4166)
Enterococcus faecium [3] = assay: In vitro antibacterial activity against Enterococcus faecium (ATCC 35667)
Enterococcus faecium [4] = assay: In vitro antibacterial activity against vancomycin resistant Enterococcus faecium

Row | SMILES | MIC (Enterococcus faecalis [1]) | MIC (Staphylococcus aureus) | MIC (Enterococcus faecalis [2]) | MIC (Enterococcus faecium [3]) | MIC (Enterococcus faecium [4])
1 | CN[C@H](CC(C)C)C(=O)N[C@H]1C(=O)N[C@@H](CC#N)C(=O)N[C@H]2C(=O)N[C@H]3C(=O)N[C@H](C(=O)N[C@H](C(=O)OC)c4cc(OC)cc(OC)c4-c4cc3ccc4OC)[C@H](O)c3ccc(c(Cl)c3)Oc3cc2cc(c3OC)Oc2ccc(cc2Cl)[C@H]1O | 2.5 µg/mL (≈ 2.09 µM) | 0.625 µg/mL (≈ 0.523 µM) | 40 µg/mL (≈ 33.4 µM) | 1.25 µg/mL (≈ 1.05 µM) | 40 µg/mL (≈ 33.4 µM)
2 | CN[C@H](CC(C)C)C(=O)N[C@H]1C(=O)N[C@@H](CC#N)C(=O)N[C@H]2C(=O)N[C@H]3C(=O)N[C@H](C(=O)N[C@H](C(=O)O)c4cc(O)cc(O)c4-c4cc3ccc4O)[C@H](O)c3ccc(c(Cl)c3)Oc3cc2cc(c3O[C@@H]2O[C@H](CO)[C@@H](O)[C@H](O)[C@H]2O[C@H]2C[C@](C)(N)[C@H](O)[C@H](C)O2)Oc2ccc(cc2Cl)[C@H]1O | 320 µg/mL (≈ 224 µM) | 20 µg/mL (≈ 14 µM) | 320 µg/mL (≈ 224 µM) | 80 µg/mL (≈ 55.9 µM) | 320 µg/mL (≈ 224 µM)
3 | CN[C@H](CC(C)C)C(=O)N[C@H]1C(=O)N[C@@H](CC#N)C(=O)N[C@H]2C(=O)N[C@H]3C(=O)N[C@H](C(=O)N[C@H](C(=O)OC)c4cc(O)cc(O)c4-c4cc3ccc4O)[C@H](O)c3ccc(c(Cl)c3)Oc3cc2cc(c3O[C@@H]2O[C@H](CO)[C@@H](O)[C@H](O)[C@H]2O[C@H]2C[C@](C)(N)[C@H](O)[C@H](C)O2)Oc2ccc(cc2Cl)[C@H]1O | 160 µg/mL (≈ 111 µM) | 2.5 µg/mL (≈ 1.73 µM) | 640 µg/mL (≈ 443 µM) | 10 µg/mL (≈ 6.92 µM) | 320 µg/mL (≈ 221 µM)
4 | CN[C@H](CC(C)C)C(=O)N[C@H]1C(=O)N[C@@H](CC(N)=O)C(=O)N[C@H]2C(=O)N[C@H]3C(=O)N[C@H](C(=O)N[C@H](C(=O)OC)c4cc(O)cc(O)c4-c4cc3ccc4O)[C@H](O)c3ccc(c(Cl)c3)Oc3cc2cc(c3O[C@@H]2O[C@H](CO)[C@@H](O)[C@H](O)[C@H]2O[C@H]2C[C@](C)(N)[C@H](O)[C@H](C)O2)Oc2ccc(cc2Cl)[C@H]1O | 80 µg/mL (≈ 54.7 µM) | 2.5 µg/mL (≈ 1.71 µM) | 640 µg/mL (≈ 437 µM) | 2.5 µg/mL (≈ 1.71 µM) | 640 µg/mL (≈ 437 µM)
5 | CN[C@H](CC(C)C)C(=O)N[C@H]1C(=O)N[C@@H](CC#N)C(=O)N[C@H]2C(=O)N[C@H]3C(=O)N[C@H](C(=O)N[C@H](C(=O)O)c4cc(O)cc(O)c4-c4cc3ccc4O)[C@H](O)c3ccc(c(Cl)c3)Oc3cc2cc(c3O)Oc2ccc(cc2Cl)[C@H]1O | 320 µg/mL (≈ 284 µM) | 10 µg/mL (≈ 8.88 µM) | 640 µg/mL (≈ 568 µM) | 20 µg/mL (≈ 17.8 µM) | 640 µg/mL (≈ 568 µM)
6 | CN[C@H](CC(C)C)C(=O)N[C@H]1C(=O)N[C@@H](CC#N)C(=O)N[C@H]2C(=O)N[C@H]3C(=O)N[C@H](C(=O)N[C@H](C(=O)OC)c4cc(O)cc(O)c4-c4cc3ccc4O)[C@H](O)c3ccc(c(Cl)c3)Oc3cc2cc(c3O)Oc2ccc(cc2Cl)[C@H]1O | 320 µg/mL (≈ 281 µM) | 1.25 µg/mL (≈ 1.1 µM) | 320 µg/mL (≈ 281 µM) | 5 µg/mL (≈ 4.39 µM) | 320 µg/mL (≈ 281 µM)
7 | CN[C@H](CC(C)C)C(=O)N[C@H]1C(=O)N[C@@H](CC(N)=O)C(=O)N[C@H]2C(=O)N[C@H]3C(=O)N[C@H](C(=O)N[C@H](C(=O)O)c4cc(OC)cc(OC)c4-c4cc3ccc4OC)[C@H](O)c3ccc(c(Cl)c3)Oc3cc2cc(c3OC)Oc2ccc(cc2Cl)[C@H]1O | 20 µg/mL (≈ 16.7 µM) | 0.625 µg/mL (≈ 0.521 µM) | 40 µg/mL (≈ 33.3 µM) | 2.5 µg/mL (≈ 2.08 µM) | 40 µg/mL (≈ 33.3 µM)
8 | CN[C@H](CC(C)C)C(=O)N[C@H]1C(=O)N[C@@H](CC(N)=O)C(=O)N[C@H]2C(=O)N[C@H]3C(=O)N[C@H](C(=O)N[C@H](C(=O)OC)c4cc(OC)cc(OC)c4-c4cc3ccc4OC)[C@H](O)c3ccc(c(Cl)c3)Oc3cc2cc(c3OC)Oc2ccc(cc2Cl)[C@H]1O | 10 µg/mL (≈ 8.24 µM) | 0.625 µg/mL (≈ 0.515 µM) | 40 µg/mL (≈ 32.9 µM) | 1.25 µg/mL (≈ 1.03 µM) | 40 µg/mL (≈ 32.9 µM)
9 | CN[C@H](CC(C)C)C(=O)N[C@H]1C(=O)N[C@@H](CC#N)C(=O)N[C@H]2C(=O)N[C@H]3C(=O)N[C@H](C(=O)N[C@H](C(=O)O)c4cc(OC)cc(OC)c4-c4cc3ccc4OC)[C@H](O)c3ccc(c(Cl)c3)Oc3cc2cc(c3OC)Oc2ccc(cc2Cl)[C@H]1O | 20 µg/mL (≈ 16.9 µM) | 0.31 µg/mL (≈ 0.262 µM) | 160 µg/mL (≈ 135 µM) | 2.5 µg/mL (≈ 2.11 µM) | 160 µg/mL (≈ 135 µM)
10 | CN[C@H](CC(C)C)C(=O)N[C@H]1C(=O)N[C@@H](CC(N)=O)C(=O)N[C@H]2C(=O)N[C@H]3C(=O)N[C@H](C(=O)N[C@H](C(=O)OC)c4cc(O)cc(O)c4-c4cc3ccc4O)[C@H](O)c3ccc(c(Cl)c3)Oc3cc2cc(c3O)Oc2ccc(cc2Cl)[C@H]1O | 320 µg/mL (≈ 276 µM) | 5 µg/mL (≈ 4.32 µM) | 640 µg/mL (≈ 553 µM) | 10 µg/mL (≈ 8.64 µM) | 320 µg/mL (≈ 276 µM)
11 | CN[C@H](CC(C)C)C(=O)N[C@H]1C(=O)N[C@@H](CC(N)=O)C(=O)N[C@H]2C(=O)N[C@H]3C(=O)N[C@H](C(=O)N[C@H](C(=O)O)c4cc(O)cc(O)c4-c4cc3ccc4O)[C@H](O)c3ccc(c(Cl)c3)Oc3cc2cc(c3O)Oc2ccc(cc2Cl)[C@H]1O [VANCOMYCIN AGLYCON] | 80 µg/mL (≈ 69.9 µM) | 0.625 µg/mL (≈ 0.546 µM) | 640 µg/mL (≈ 559 µM) | 2.5 µg/mL (≈ 2.19 µM) | 160 µg/mL (≈ 140 µM)
12 | CN[C@H](CC(C)C)C(=O)N[C@H]1C(=O)N[C@@H](CC(N)=O)C(=O)N[C@H]2C(=O)N[C@H]3C(=O)N[C@H](C(=O)N[C@H](C(=O)O)c4cc(O)cc(O)c4-c4cc3ccc4O)[C@H](O)c3ccc(c(Cl)c3)Oc3cc2cc(c3O[C@@H]2O[C@H](CO)[C@@H](O)[C@H](O)[C@H]2O[C@H]2C[C@](C)(N)[C@H](O)[C@H](C)O2)Oc2ccc(cc2Cl)[C@H]1O [VANCOMYCIN] | 125 µg/mL (≈ 86.3 µM) | 1.25 µg/mL (≈ 0.863 µM) | 2000 µg/mL (≈ 1380 µM) | 2.5 µg/mL (≈ 1.73 µM) | 500 µg/mL (≈ 345 µM)
